This is an account of results in ChEMBL document CHEMBL1136680, “Synthesis and biological activities of phthalocyanine-estradiol conjugates” (2003).

Assay [1] concerns EMT6. Put plainly: In vitro phototoxicity in EMT-6 cells at 1 uM after 24 hr r MTT assay; Not active. The class given is functional, cell-based. Conditions: Mus musculus, tested as the Zn salt or complex.
Assay [2] relates to EMT6. Description: In vitro phototoxicity in EMT-6 cells at 1 uM after 6 hr MTT assay; Not active. Conditions: Mus musculus, tested as the Zn salt or complex. The class given is functional, cell-based.
Assay [3] concerns the target Estrogen receptor (Homo sapiens) (UniProt Q92731+P03372). Description: Displacement of [3H]estradiol from estrogen receptor. The class given is protein assay. Conditions: tested as the Zn salt or complex.
Assay [4] concerns EMT6. Description: In vitro phototoxicity in EMT-6 cells at 1 uM after 24 hr r MTT assay. The class given is functional, Mus musculus.
Assay [5] concerns EMT6. Put plainly: In vitro phototoxicity in EMT-6 cells at 1 uM after 6 hr MTT assay. The class given is functional, Mus musculus.

Activity calls are given as the source filed them. No cut-off for these calls is given here.

On to `CCCCc1ccc2c(c1)-c1nc-2nc2[nH]c(nc3nc(nc4[nH]c(n1)c1ccc(CCCC)cc41)-c1ccc(C#CC#Cc4cccc([C@@]5(O)CC[C@H]6[C@@H]7CCc8cc(O)ccc8[C@H]7CC[C@@]65C)c4)cc1-3)c1ccc(CCCC)cc21`, for which the LD90 entry in the assay with EMT6 [1] and in the assay with EMT6 [2] was “inactive” in each case. Moreover, the relative binding affinity (RBA) in assay [3] worked out at 8.54.

Consider `C[C@]12CC[C@@H]3c4ccc(O)cc4CC[C@H]3[C@@H]1CC[C@]2(O)c1ccc(C#CC#Cc2ccc3c(c2)-c2nc-3nc3[nH]c(nc4nc(nc5[nH]c(n2)c2ccc(S(=O)(=O)[O-])cc52)-c2ccc(S(=O)(=O)[O-])cc2-4)c2ccc(S(=O)(=O)[O-])cc32)cc1.[Na+].[Na+].[Na+].[Zn]`, for which the LD90 in the assay with EMT6 [4] is reported as 5.3 J cm**-2; in the assay on EMT6 [5], 10.4 J cm**-2. Besides, in assay [3], the relative binding affinity (RBA) was 1.22.

For `C[C@]12CC[C@@H]3c4ccc(O)cc4CC[C@H]3[C@@H]1CC[C@]2(O)c1cccc(C#CC#Cc2ccc3c(c2)-c2nc-3nc3[nH]c(nc4nc(nc5[nH]c(n2)c2ccc(S(=O)(=O)[O-])cc52)-c2ccc(S(=O)(=O)[O-])cc2-4)c2ccc(S(=O)(=O)[O-])cc32)c1.[Na+].[Na+].[Na+].[Zn]`, the LD90 in the assay on EMT6 [4] was determined as 4 J cm**-2; in the assay with EMT6 [5] it was 10.4 J cm**-2. The relative binding affinity (RBA) in assay [3] amounted to 0.3.

For `C[C@]12CC[C@@H]3c4ccc(O)cc4CC[C@H]3[C@@H]1CC[C@]2(O)C#Cc1cccc2cc3c(cc12)-c1nc-3nc2[nH]c(nc3nc(nc4[nH]c(n1)c1ccc(S(=O)(=O)[O-])cc41)-c1ccc(S(=O)(=O)[O-])cc1-3)c1cc(S(=O)(=O)[O-])ccc21.[Na+].[Na+].[Na+].[Zn]`, the LD90 worked out at 3 J cm**-2 in the assay on EMT6 [4] and 12 J cm**-2 in the assay on EMT6 [5]. The relative binding affinity (RBA) in assay [3] came to 1.24.

As for `C[C@]12CC[C@@H]3c4ccc(O)cc4CC[C@H]3[C@@H]1CC[C@]2(O)CCCCC#CC#Cc1ccc2c(c1)-c1nc-2nc2[nH]c(nc3nc(nc4[nH]c(n1)c1ccc(S(=O)(=O)[O-])cc41)-c1ccc(S(=O)(=O)[O-])cc1-3)c1ccc(S(=O)(=O)[O-])cc21.[Na+].[Na+].[Na+].[Zn]`, the LD90 is 2.9 J cm**-2 with EMT6 [4] and 7.3 J cm**-2 in the assay on EMT6 [5]. In assay [3], the relative binding affinity (RBA) worked out at 1.26.

Regarding `C[C@]12CC[C@@H]3c4ccc(O)cc4CC[C@H]3[C@@H]1CC[C@]2(O)C#Cc1ccc2c(c1)-c1nc-2nc2[nH]c(nc3nc(nc4[nH]c(n1)c1ccc(S(=O)(=O)[O-])cc41)-c1ccc(S(=O)(=O)[O-])cc1-3)c1cc(S(=O)(=O)[O-])ccc21.[Na+].[Na+].[Na+].[Zn]`, the LD90 is reported as 5.1 J cm**-2 with EMT6 [4] and 7 J cm**-2 in the assay with EMT6 [5]. In addition, the relative binding affinity (RBA) in assay [3] turned out to be 1.64.

For `CCCCc1ccc2c(c1)-c1nc-2nc2[nH]c(nc3nc(nc4[nH]c(n1)c1ccc(CCCC)cc41)-c1ccc(C#C[C@@]4(O)CC[C@H]5[C@@H]6CCc7cc(O)ccc7[C@H]6CC[C@@]54C)cc1-3)c1ccc(CCCC)cc21`, the LD90 result in the assay on EMT6 [1] and in the assay with EMT6 [2] was “inactive” each time. Moreover, the relative binding affinity (RBA) in assay [3] amounted to 1.35.

As for `CCCCc1ccc2c(c1)-c1nc-2nc2[nH]c(nc3nc(nc4[nH]c(n1)c1ccc(CCCC)cc41)-c1cccc(C#C[C@@]4(O)CC[C@H]5[C@@H]6CCc7cc(O)ccc7[C@H]6CC[C@@]54C)c1-3)c1ccc(CCCC)cc21`, the LD90 entry with EMT6 [1] and in the assay on EMT6 [2] was “inactive” throughout. Further, the relative binding affinity (RBA) in assay [3] was determined as 12.9.

Regarding `CCCCc1ccc2c(c1)-c1nc-2nc2[nH]c(nc3nc(nc4[nH]c(n1)c1ccc(CCCC)cc41)-c1ccc(C#CC#CCCCC[C@@]4(O)CC[C@H]5[C@@H]6CCc7cc(O)ccc7[C@H]6CC[C@@]54C)cc1-3)c1ccc(CCCC)cc21`, the LD90 result with EMT6 [1] and with EMT6 [2] was “inactive” throughout. Also, the relative binding affinity (RBA) in assay [3] turned out to be 3.08.

`CCCCc1ccc2cc3c(cc2c1)-c1nc-3nc2[nH]c(nc3nc(nc4[nH]c(n1)c1cc5ccc(CCCC)cc5cc41)-c1ccc(C#C[C@@]4(O)CC[C@H]5[C@@H]6CCc7cc(O)ccc7[C@H]6CC[C@@]54C)cc1-3)c1cc3ccc(CCCC)cc3cc21`: the LD90 entry with EMT6 [1] and in the assay on EMT6 [2] was “inactive” in each case. The relative binding affinity (RBA) in assay [3] was found to be 10.4.

In the case of `C[C@]12CC[C@@H]3c4ccc(O)cc4CC[C@H]3[C@@H]1CC[C@]2(O)CCCCC#CC#Cc1cccc2c1-c1nc-2nc2[nH]c(nc3nc(nc4[nH]c(n1)c1ccc(S(=O)(=O)[O-])cc41)-c1ccc(S(=O)(=O)[O-])cc1-3)c1ccc(S(=O)(=O)[O-])cc21.[Na+].[Na+].[Na+].[Zn]`, the LD90 with EMT6 [4] is 4.3 J cm**-2; in the assay on EMT6 [5], 12 J cm**-2. In addition, the relative binding affinity (RBA) in assay [3] was determined as 0.56.
